From patent publication US20230078718A1, “UNSATURATED FATTY ACID-CONJUGATED CP2C-TARGETING PEPTIDE-BASED ANTICANCER AGENT” (Industry-University Cooperation Foundation Hanyang …, priority 2020, published 2023)
Bridge positions count the residues as written; N and C are the ends. Peptide text beside a SMILES is read from it. * marks the point of attachment. X1 = CC/C=C\C/C=C\C/C=C\C/C=C\C/C=C\C/C=C\CCC(=O)*

Assays:
[1] = system: non-tumorigenic lung cell line (BEAS-2B)
Procedure: (§1) As an example thereof, FIG. 10 illustrates cell numbers at 48 hours and 96 hours after treatment of each drug at different concentrations in a breast cancer cell line (MDA-MB-231), normal human mesenchymal stem cells (hMSCs, LT18), and a non-tumorigenic lung cell line (BEAS-2B), cell growth inhibition graphs to get GI50 values, and representative photographs of cells.
(§2) First, to test the effect of DHA itself, a breast cancer cell line (MDA-MB-231), liver cancer cell lines (Hep3B and HepG2), a normal hMSC cell line ([…]), and a non-tumorigenic lung cell line (BEAS-2B) were treated with DHA over concentrations, and then cell growth was analyzed by MTT assay.

[2] = system: normal human mesenchymal stem cells (hMSCs)
Procedure: as §1, §2

[3] = system: breast cancer cell line (MDA-MB-231), liver cancer cell lines (Hep3B and HepG2); assay: Cell growth by MTT assay after DHA treatment of cancer cell lines; assay type: cell-based
Procedure: First, to test the effect of DHA itself, a breast cancer cell line (MDA-MB-231), liver cancer cell lines (Hep3B and HepG2), a normal hMSC cell line (LA211), and a non-tumorigenic lung cell line (BEAS-2B) were treated with DHA over concentrations, and then cell growth was analyzed by MTT assay.

[4] = system: various cancer cell lines; assay: Cell growth inhibition in various cancer cell lines (MTT assay, GI50); assay type: cell-based
[5] = Stability in serum (in vitro) by HPLC; assay type: in vitro ADME
Text: (§3) The following methods were used to confirm the stability and safety of the cancer cell-specific cell death-inducing ACP52C. […] It is presumed that ACP52C is subjected to renal secretion rather than degradation by proteases, since ACP52C (a peptide consisted of 15 amino acids) is short enough to be easily secreted from the kidneys.

[6] = Half-life in blood (in vivo) by HPLC; conditions: read-out: time to degradation to half in blood (in vivo) (converted)
Text: as §3

human erythrocytes = assay: Hemolysis of erythrocytes; assay type: cell-based; conditions: pH 7.4, 8 hours
Text: as §3

[7] = Live imaging of Cy5-labeled peptide after tail vein injection in Hep3B xenograft mouse; conditions: in vivo
Text: as §3

Hep3B xenograft = assay: Tumor growth inhibition in Hep3B xenograft mouse model; assay type: in vivo
Procedure: In order to confirm the anticancer efficacy of ACP52CG and ACP52CK in vivo, following groups of treatment were performed […]; a negative control (saline; mock), a positive control (sorafenib, 10 mg/kg and ACP52C, 2 mg/kg), and an experimental group (ACP52CK, 5 mg/kg and ACP52CG, 5 mg/kg).

[8] = system: MDA-MB-231 and HepG2 cell lines
MDA-MB-231 cell line = conditions: MDA-MB-231, FACS
[9] = system: MCF10A, a non-tumorigenetic breast epithelial cell line; conditions: FACS
MDA-MB-231 cells = conditions: western blotting of apoptosis-related proteins, electron microscopy, Annexin V/PI
MCF10A cells = conditions: electron microscopy
[10] = system: breast cancer (MDA-MB-231) and liver cancer (HepG2) cell lines
MCF7 cells = conditions: ACP52C-treated MCF7 cells
[11] = system: CP2c transcription factor complexes [CP2c homotetramer and the CBP (CP2c, CP2b, and PIAS1) heterohexamer]; assay: Interference with CP2c transcription factor complex formation and DNA binding; assay type: biochemical
Text: Since PEP #5-2 cannot enter cells by itself, in order to improve cell permeability of Pep #5-2, a cell-penetrating peptide (CPP), an internalizing RGD (iRGD) which is a peptide consisting of 9 amino acids (9aa) ‘Cys-Arg-Gly-Asp-Lys-Gly-Pro-Asp-Cys (CRGDKGPDC, SEQ ID NO: 3)’, was bound to the CP2c-targeting peptide and named it as ACP52C (FIG. 7).

[12] = tail vein, 6 times at 3-day intervals, sorafenib 10 mg/kg, DHA-ACP52 1.65 mg/kg, DHA-ACP52C 2.79 mg/kg

Question: For CC/C=C\C/C=C\C/C=C\C/C=C\C/C=C\C/C=C\CCC(=O)O [DHA, all-cis-docosa-4,7,10,13,16,19-hexa-enoic acid, reference compound], which concentration showing cytotoxicity ([1]; human) is on record?
Answer: The concentration showing cytotoxicity was no less than 20 µM.

Question: What about the cytotoxicity [2] of the same compound?
Answer: Its cytotoxicity is “showed no cytotoxicity on the normal cell line”.

Question: What about the “anticancer effect at a concentration of 10 μM or less” value ([3]; Hep3B and MDA-MB-231 cell lines) of the same compound?
Answer: The value was “no anticancer effect was exhibited”.

Question: What about the concentration showing cytotoxicity ([3]; cancer cells, MTT) of the same compound?
Answer: Its concentration showing cytotoxicity is no less than 20 µM.

Question: For N=C(N)NCCC[C@@H]1NC(=O)[C@@H](NC(=O)[C@@H]2CCCN2C(=O)[C@H](CCCNC(=N)N)NC(=O)[C@H](CCC(N)=O)NC(=O)[C@@H]2CCCN2C(=O)[C@H](Cc2ccc(O)cc2)NC(=O)[C@@H](N)CC(N)=O)CSSC[C@@H](C(N)=O)NC(=O)[C@H](CC(=O)O)NC(=O)[C@@H]2CCCN2C(=O)CNC(=O)[C@H](CCCCN)NC(=O)[C@H](CC(=O)O)NC(=O)CNC1=O [ACP52C] (H-NYPQRPCRGDKGPDC-NH2; disulfide 7-15; N-terminus assumed), which “effective concentration for cancer cell-specific cell death” value [4] is on record?
Answer: Its value is no more than 10 µM.

Question: And the “cancer cell-specific growth suppression and cell death” value ([4]; various cancer cell lines)?
Answer: The value was “cancer cell-specific growth suppression and cell death efficacies”.

Question: What about the “time stable in serum (in vitro)” value [5] of the same compound?
Answer: The value was “up to 24 hours”.

Question: And the half-life [6]?
Answer: Its half-life is 2 h.

Question: What about the hemolysis (human erythrocytes) of the same compound?
Answer: The hemolysis was “Hemolysis was not appeared”.

Question: And the half-life [7]?
Answer: The half-life was roughly 7.95 h.

Question: And the “anticancer effect (summary)” value (Hep3B xenograft; injected by 3-day intervals)?
Answer: The value was “exhibited a significant anticancer effect when injected by 3-day intervals”.

Question: And the “anticancer effect (summary)” value (Hep3B xenograft; injected by 5-day intervals)?
Answer: The value was “did not exhibit a significant anticancer effect when injected by 5-day intervals”.

Question: And the “colony formation ability when CP2c is overexpressed” value ([8]; CP2c overexpression)?
Answer: Its value is “the colony formation ability is suppressed more efficiently”.

Question: And the colony formation ability ([8]; MDA-MB-231 and HepG2)?
Answer: The colony formation ability was “efficiently suppressed the colony formation ability”.

Question: And the cell cycle changes (MDA-MB-231 cell line)?
Answer: Its cell cycle changes is “induced cell cycle arrest, increasing cells at G2/M and subG1 phases”.

Question: And the cell cycle progression [9]?
Answer: Its cell cycle progression is “exerted no effect on cell cycle progression”.

Question: What about the “cell death induction via apoptosis” value (MDA-MB-231 cells) of the same compound?
Answer: The value was “induced cell death via apoptosis”.

Question: And the “characteristics of apoptosis (condensation of cell nuclei)” value (MCF10A cells)?
Answer: The value was “not at all in MCF10A cells”.

Question: And the GI50 [10]?
Answer: Its GI50 is 2 µM.

Question: What about the “expression of Cdc2 (CDK1) and Cyclin B1” value (MCF7 cells) of the same compound?
Answer: Its value is “expression of Cdc2 (CDK1) and Cyclin B1 was decreased”.

Question: Which results are given for CC/C=C\C/C=C\C/C=C\C/C=C\C/C=C\C/C=C\CCC(=O)NCC(=O)NCC(=O)N[C@@H](CC(N)=O)C(=O)N[C@@H](Cc1ccc(O)cc1)C(=O)N1CCC[C@H]1C(=O)N[C@@H](CCC(N)=O)C(=O)N[C@@H](CCCNC(=N)N)C(=O)N1CCC[C@H]1C(N)=O [DHA-ACP52] (X1-GGNYPQRP-NH2)?
Answer: toxicity [1]: none of DHA-ACP52 and DHA-ACP52C showed toxicity; toxicity [2]: none of DHA-ACP52 and DHA-ACP52C showed toxicity; tumor size, shape, and weight in sacrificed mice (Hep3B xenograft; [12]): did not exhibit any effect; GI50 [10]: 5.7 to 6.95 µM

Question: Which “tumor size measured once every 3 days during the experiment” value (Hep3B xenograft; [12]) does the source give for CNC(=O)c1cc(Oc2ccc(NC(=O)Nc3ccc(Cl)c(C(F)(F)F)c3)cc2)ccn1 [sorafenib, reference compound] here?
Answer: The value was “inhibited cancer growth more effectively than the group treated with mock or DHA-ACP52”.

Question: And the “tumor size, shape, and weight in sacrificed mice” value (Hep3B xenograft; [12])?
Answer: Its value is “significant anticancer efficacy compared to the mock”.

Question: Which “interference with DNA binding of the CP2c transcription factor complexes by suppressing complex formation” value [11] does the source give for “PEP #5: peptide binding transcription factor CP2c, identified by the phage display method (YPQR; peptide for targeting CP2c)” here?
Answer: Its value is “interferes with DNA binding of the CP2c transcription factor complexes”.

Question: With “NYPQRP(Asn-Try-Pro-Gln-Arg-Pro, SEQ ID NO: 2) (peptide for targeting CP2c) [PEP #5-2, CP2c-targeting peptide of 6 amino acids at the carboxyl terminus of PEP #5]” as the compound, how does the “interference with DNA binding of the CP2c transcription factor complexes by suppressing complex formation” value [11] read?
Answer: The value was “showed the same effect as PEP #5”.
